Experimental data from patent US6689596B2, “High level expression of human cyclooxygenase-2” (Merck & Co., Inc., priority 1992, dated 2004).

Key:
[1] = target: T1, cyclooxygenase-1 (U-937 microsomes) (Homo sapiens, UniProt P23219); assay: Microsomal cyclooxygenase assay, U-937 microsomes; type: biochemical; conditions: 20 μM arachidonic acid
T1 construct: host or cells: microsomal fraction of U-937 cells
Method: COX-1 cells are grown and maintained in culture as described above, washed in a suitable buffer, such as PBS, and cell pellets or concentrates stored, preferably at −80° C. […] The cell homogenate is then concentrated and resuspended. In our preferred procedure the cell homogenate is centrifuged at 10,000× g for 10 minutes at 4° C. The supernatant fraction is then recentrifuged at 100,000× g for 2 hours at 4° C., and the resulting microsomal pellet resuspended in a suitable buffer, such as 0.1 M Tris-HCl, 1 mM EDTA, pH 7.4 to a protein concentration of approximately 1 to 10 mg/ml. Aliquots of osteosarcoma microsomal preparations may be stored at reduced temperature and thawed prior to use.
(§1) Microsomal preparations from Human osteosarcoma and U937 cells are diluted in buffer, such as 0.1 M Tris-HCl, 10 mM EDTA, pH 7.4, (Buffer A) to a protein concentration of 50 to 500 µg/ml. […] Typically, assays are performed in either duplicate or triplicate. Peroxide-free arachidonic acid (CAYMAN) in Buffer A is then added to a final concentration of 20 μM arachidonic acid, followed by incubation, preferably at room temperature for 10 to 60 minutes. Control samples contained ethanol or other vehicle instead of arachidonic acid. Following incubation, the reaction was terminated by addition of HCl or other mineral acid. Prior to analysis of PGE2 levels, samples were neutralized. Levels of PGE2 in samples may be quantitated as described for the whole cell cyclooxygenase assay.
U-937 cells were grown and maintained in culture as described above, washed in PBS, and cell pellets frozen at −80° C. […] The cell homogenate was then centrifuged at 10,000× g for 10 minutes at 4° C. The supernatant fraction was then recentrifuged at 100,000× g for 2 hours at 4° C., and the resulting microsomal pellet resuspended in 0.1 M Tris-HCl, 1 mM EDTA, pH 7.4 to a protein concentration of approximately 4 mg/ml. 500 μl aliquots of osteosarcoma microsomal preparations were stored at −80° C. and thawed on ice immediately prior to use.
All subsequent assay steps, including the dilution of stock solutions of test compounds, were automated using the BIOMEK 100 (BIORAD). 5 μl of test compound or DMSO vehicle was added, with mixing, to 20 μl of buffer A in a 96-well minitube plate (BECKMAN). 200 μl of microsome suspension was then added, followed by mixing and incubation for 5 minutes at room temperature. Assays were performed in either duplicate or triplicate. […] of peroxide-free arachidonic acid (CAYMAN) in buffer A is then added to a final concentration of 20 μM aracidonic acid, with mixing, followed by incubation at room temperature for 40 minutes. Control samples contained ethanol vehicle instead of arachidonic acid. Following the incubation period, the reaction was terminated by the addition of 25 μl of 1N HCl, with mixing. Prior to analysis of PGE2 levels, samples were neutralized by the addition of 25 μl of 1 N NaOH. Levels of PGE2 in samples were quantitated by enzyme immunoassay (CAYMAN) as described for the whole cell cyclooxygenase assay.

[2] = target: T2, cyclooxygenase-2 (osteosarcoma 143.98.2 microsomes) (Homo sapiens, UniProt P35354); assay: Microsomal cyclooxygenase assay, osteosarcoma 143.98.2 microsomes; type: biochemical; conditions: 20 μM arachidonic acid
T2 construct: The cell homogenates were then subjected to a differential centrifugation protocol to yield an enriched microsomal preparation; endogenous in cells; host or cells: microsomal fraction of human osteosarcoma 143.98.2 cells
T2 sequence (P35354 18-604): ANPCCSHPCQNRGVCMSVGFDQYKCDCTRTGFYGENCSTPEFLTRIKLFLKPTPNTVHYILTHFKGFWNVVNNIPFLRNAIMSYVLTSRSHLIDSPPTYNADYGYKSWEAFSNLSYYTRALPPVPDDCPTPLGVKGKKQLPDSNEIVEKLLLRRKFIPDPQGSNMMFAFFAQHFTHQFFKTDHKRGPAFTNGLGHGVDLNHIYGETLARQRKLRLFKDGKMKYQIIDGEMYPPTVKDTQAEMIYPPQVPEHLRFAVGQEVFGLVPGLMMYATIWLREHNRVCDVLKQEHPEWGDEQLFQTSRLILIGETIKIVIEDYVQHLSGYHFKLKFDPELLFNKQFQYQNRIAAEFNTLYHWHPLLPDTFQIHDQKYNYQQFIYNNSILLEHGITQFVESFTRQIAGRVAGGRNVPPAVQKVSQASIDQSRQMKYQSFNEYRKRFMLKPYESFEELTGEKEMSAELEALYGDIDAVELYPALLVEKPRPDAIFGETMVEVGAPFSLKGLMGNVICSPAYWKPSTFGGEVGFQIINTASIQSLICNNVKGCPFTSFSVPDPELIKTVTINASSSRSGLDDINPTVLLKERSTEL
Method: Human osteosarcoma cells may be grown and maintained in culture as described above. Approximately 10^5 to 10^7 cells are plated in tissue culture plates such as available from NUNCLON and maintained in culture for 2 to 7 days. Cells may be washed with a suitable buffer such phosphate buffered saline, (PBS), pH 7.2. Cells are then removed from the plate, preferably by scraping into PBS. Samples may then be concentrated, such as by centrifuging at 400× g for 10 minutes at 4° C. Cell pellets or other concentrates are either stored at a suitable reduced temperature such as −80° C., or processed immediately. All further manipulations of the cells are preferably performed at 0-4° C. […] Enriched microsomal preparations are then prepared, such as by differential centrifugation to yield an enriched microsomal preparation. In our preferred procedure, the first step consists of four sequential centrifugations of the cell homogenate at 10,000× g for 10 min at 4° C. After each centrifugation at 10,000×.g, the supernatant is retained and recentrifuged. Following the fourth centrifugation, the supernatant is centrifuged at 100,000× g for 60-90 min at 4° C. to pellet the microsomal fraction. […] The resulting microsomal suspension is recentrifuged such as at 100,000× g for 90 min at 4° C. to recover the microsomes. Following this centrifugation the microsomal pellet is resuspended in a stabilizing buffer, such as 0.1 M Tris-Cl, pH 7.4, containing 10 mM EDTA at a protein concentration of approximately 2-5 mg/ml. Aliquots of osteosarcoma microsomal preparations may be stored at low temperature, such as at −80° C. and thawed prior to use.
as §1
Cells were washed twice with 100 ml of phosphate buffered saline, pH 7.2, (PBS) and then scraped from the plate with a sterile rubber scraper into PBS. Samples were then centrifuged at 400× g for 10 minutes at 4° C. Cell pellets were either stored at −80° C. until use or processed immediately. All further manipulations of the cells were performed at 0-4° C. […] The cell homogenates were then subjected to a differential centrifugation protocol to yield an enriched microsomal preparation. The first step consisted of four sequential centrifugations of the cell homogenate at 10,000× g for 10 min at 4° C. After each centrifugation at 10,000× g the supernatant was retained and recentrifuged. Following the fourth centrifugation, the supernatant was centrifuged at 100,000× g for 60-90 min at 4° C. to pellet the microsomal fraction. […] The resulting microsomal suspension was recentrifuged at 100,000× g for 90 min at 4° C. to recover the microsomes. […] 500 μl aliquots of osteosarcoma microsomal preparations were stored at −80° C. and thawed on ice immediately prior to use.
All subsequent assay steps, including the dilution of stock solutions of test compounds, were automated using the BIOMEK 100 (BIORAD). 5 μl of test compound or DMSO vehicle was added, with mixing, to 20 μl of buffer A in a 96-well minitube plate (BECKMAN).

[3] = target: T3, cyclooxygenase-1 (U-937 cells) (Homo sapiens, UniProt P23219); assay: Whole cell cyclooxygenase assay, PGE2 synthesis by U-937 cells in response to exogenous arachidonic acid; type: cell-based
T3 construct: the appropriate number of U-937 cells were removed from spinner cultures and centrifuged; host or cells: U-937 human histiocytic lymphoma cells (intact)
T3 sequence (P23219 24-599): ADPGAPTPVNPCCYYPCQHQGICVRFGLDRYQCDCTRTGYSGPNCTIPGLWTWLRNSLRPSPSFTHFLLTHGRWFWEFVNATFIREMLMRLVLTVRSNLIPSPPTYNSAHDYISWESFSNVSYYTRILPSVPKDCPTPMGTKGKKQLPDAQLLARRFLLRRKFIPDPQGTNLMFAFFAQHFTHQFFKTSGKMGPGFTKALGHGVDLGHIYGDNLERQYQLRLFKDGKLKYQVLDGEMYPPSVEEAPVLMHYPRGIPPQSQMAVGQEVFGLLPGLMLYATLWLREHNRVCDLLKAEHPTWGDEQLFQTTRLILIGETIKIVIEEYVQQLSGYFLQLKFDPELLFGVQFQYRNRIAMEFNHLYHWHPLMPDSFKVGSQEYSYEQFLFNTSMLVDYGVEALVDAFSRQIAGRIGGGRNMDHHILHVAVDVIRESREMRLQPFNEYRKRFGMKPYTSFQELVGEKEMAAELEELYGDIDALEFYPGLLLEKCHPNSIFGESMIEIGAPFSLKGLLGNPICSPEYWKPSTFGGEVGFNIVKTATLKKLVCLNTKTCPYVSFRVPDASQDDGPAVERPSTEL
Method: Such cells are hereinafter described as COX-1 cells. Prior to assay, the appropriate number of COX-1 cells (10^5 to 10^7 cells/ml) are removed from cultures and concentrated using a technique such as by centrifugation at 300× g for 10 minutes. The supernatant is decanted and cells are washed in a suitable buffer. […] Following incubation of human osteosarcoma cells or COX-1 cells in a suitable buffer, a test compound and/or vehicle samples (such as DMSO) is added, and the resulting composition gently mixed. Preferably the assay is performed in triplicate. Arachidonic acid is then added in proportions as described above. […] Control samples should contain ethanol or other vehicle instead of arachidonic acid. […] For osteosarcoma cells, reactions may be stopped by the addition HCl or other acid, preferably combined with mixing, or by the rapid removal of media directly from cell monolayers. For U-937 cells, reactions may be advantageously be performed in multiwell dishes or microcentrifuge tubes and stopped by the addition of HCl or another mineral acid. Typically, samples assayed in 24-multidishes are then transferred to microcentrifuge tubes, and all samples frozen on dry ice. Similarly, samples are typically stored at -20° C. or below prior to analysis of PGE2 levels. […] Samples are then preferably mixed, such as by vortexing, and PGE2 levels measured using a PGE2 enzyme immunoassay, such as is commercially available from CAYMAN. We have advantageously conducted the plating, washing and color development steps as an automated sequence using a BIOMEK 1000 (BECKMAN). […] Levels of PGE2 are calculated from the standard curve, and may optionally determined using BECKMAN IMMUNOFIT EIA/RIA analysis software. […] Inhibition of PGE2 synthesis by test compounds is calculated between PGE2 levels in samples incubated in the absence or presence of […]. […] For routine subculturing, cells were diluted in fresh medium and transferred to fresh flasks. […] The supernatant was decanted and cells washed in 50 ml of HBSS prewarmed to 37° C. Cells were again pelleted at 300× g for 10 minutes and resuspended in prewarmed HBSS to a final cell density of approximately 1.5×10^6 cells/ml. 1 ml aliquots of cell suspension were transferred to 1.5 ml microcentrifuge tubes or 24-well multidishes (Nunclon). […] All assays were performed in triplicate. […] Control samples contained ethanol vehicle instead of arachidonic acid. Samples were again gently mixed and incubated for a further 10 minutes at 37° C. […] For U-937 cells, reactions in multiwell dishes or microcentrifuge tubes were stopped by the addition of 100 μl of 1N HCl, with mixing. Samples assayed in 24-multidishes were then transferred to microcentrifuge tubes, and all samples were frozen on dry ice. Samples were stored at -20° C. prior to analysis of PGE2 levels. […] Samples were then mixed by vortexing, and PGE2 levels measured using a PGE2 enzyme immunoassay (CAYMAN) according to the manufacturers instructions. The plating, washing and colour development steps of this procedure were automated using a BIOMEK 1000 (BECKMAN). […] Levels of PGE2 were calculated from the standard curve determined using BECKMAN IMMUNOFIT EIA/RIA analysis software.

[4] = test system: osteosarcoma 143 cells; assay: PGE2 synthesis by osteosarcoma 143 cells in response to arachidonic acid after treatment with growth factors/cytokines; type: cell-based, human; conditions: 10 pg/ml; within a 3-hour period, 1% serum; relative to cells grown in the absence of these factors

T1 sequence (P23219 24-599): as above

Molecule	inhibition at 0.1 µM ([1]; drug 100 nM) [%]	inhibition at 3 µM ([1]; drug 3 uM) [%]	143.98.2 % Inhibition ([2]; drug 100 nM) [%]	143.98.2 % Inhibition ([2]; drug 3 uM) [%]	U-937 % Inhibition ([1]; drug 100 nM) [%]	U-937 % Inhibition ([1]; drug 3 uM) [%]	also measured
CS(=O)(=O)c1ccc(-c2cc(Br)sc2-c2ccc(F)cc2)cc1 [DuP-697]	6	48	–	–	–	–	–
CC(=O)c1ccc(NS(C)(=O)=O)c(Oc2ccc(F)cc2F)c1 [FK-3311]	–	–	20	26	0	0	–
CS(=O)(=O)Nc1cc2c(cc1Oc1ccc(F)cc1F)C(=O)CC2 [Flosulide]	0	0	–	–	–	–	–
O=C(O)c1ccccc1Nc1cccc(C(F)(F)F)c1 [Flufenamic]	–	–	16	36	5	0	–
CC(C(=O)O)c1ccc(-c2ccccc2)c(F)c1 (centres unmarked) [Fluribprofen]	–	–	–	–	57	89	–
CS(=O)(=O)Nc1ccc([N+](=O)[O-])cc1OC1CCCCC1 [NS-398]	0	0	–	–	–	–	U-937 PGE2 ([3]; sample 0.3 nM): 18.3 ng/10^6 cells; U-937 PGE2 ([3]; sample 1.0 nM): 17.7 ng/10^6 cells; U-937 PGE2 ([3]; sample 3.0 nM): 18.3 ng/10^6 cells; U-937 PGE2 ([3]; sample 10 nM): 20.4 ng/10^6 cells; U-937 PGE2 ([3]; sample 30.0 nM): 17.7 ng/10^6 cells; U-937 PGE2 ([3]; sample 100 nM): 18.9 ng/10^6 cells
CSc1ccc(/C=C2/C(C)=C(CC(=O)O)c3cc(F)ccc32)cc1 [Sulindac sulfide]	0	4	–	–	–	–	–
Cc1cc(CC(=O)O)n(C)c1C(=O)c1ccc(Cl)cc1 [Zomipirac]	–	–	45	66	30	67	–
IL1-β: human recombinant IL1-β (R and D systems Inc.)	–	–	–	–	–	–	levels of PGE2 synthesis by osteosarcoma 143 cells in response to arachidonic acid [4]: increased
